Measured values: patent US8410097B2 (priority 2005, dated 2013)
Where two headings read alike, the source gives them in different places.

Assays:
[1] = molecular target: T1, CB1 cannabinoid receptor (Rattus norvegicus, UniProt P20272); test: biochemical; assay type: binding; details: for Ki: rat forebrain membranes; for Selectivity CB1: CB1 over CB2 binding selectivity (ratio of Ki)
T1 construct: membranes were prepared from rat forebrain membranes; from tissue; host or cells: rat forebrain membranes
Experimental: Some of the inventive analogs were tested for CB2 receptor binding affinity and for CB1 receptor affinity (to determine selectivity). […] The lower the Ki value the higher the binding affinity. […]
Membranes, previously frozen at −80° C., were thawed on ice. To the stirred suspension was added three volumes of TME (25 mM Tris-HCl buffer, 5 mM MgCl2 and 1 mM EDTA) at a pH 7.4. The suspension was incubated at 4° C. for 30 min. At the end of the incubation, the membranes were pelleted and washed three times with TME.
(§1) The treated membranes were subsequently used in the binding assay described below. Approximately 30 μg of membranes were incubated in silanized 96-well microtiter plate with TME containing 0.1% essentially fatty acid-free bovine serum albumin (BSA), 0.8 nM [^3H] […] Radioactivity was detected using MicroScint 20 scintillation cocktail added directly to the dried filterplates, and the filterplates were counted using a Packard Instruments Top-Count. […] Data collected from three independent experiments performed with duplicate determinations was normalized between 100% and 0% specific binding for [^3H] […] The normalized data was analyzed using a 4-parameter nonlinear logistic equation to yield IC50 values.

[2] = molecular target: CB2 cannabinoid receptor (Mus musculus, UniProt P47936); test: biochemical; assay type: binding; details: mouse spleen membranes
Experimental: Some of the inventive analogs were tested for CB2 receptor binding affinity and for CB1 receptor affinity (to determine selectivity). […] The lower the Ki value the higher the binding affinity.
as §1
Silanized centrifuge tubes were used throughout to minimize receptor loss due to adsorption. The CB2 binding assay was conducted in the same manner as for the CB1 binding assay. The binding affinities (Ki) were also expressed in nanomoles (nM).

[3] = CB1 Ki, Table 6, 0.8 nM [3H] CP-55,940
[4] = Table 6, [3H] CP-55,940, read-out: CB2 Ki
[5] = Receptor Affinities Ki (nM) CB1, Table 10
[6] = Table 10, read-out: Receptor Affinities Ki (nM) CB2
[7] = Receptor Affinities Ki (nM) CB1, Table 8
[8] = Table 8, read-out: Receptor Affinities Ki (nM) CB2
[9] = Receptor Affinities Ki (nM) CB1, Table 9
[10] = Table 9, read-out: Receptor Affinities Ki (nM) CB2
[11] = Table 6, 0.8 nM [3H] CP-55,940, read-out: CB1 Ki

Sequence of CB2 cannabinoid receptor (P47936 whole entry): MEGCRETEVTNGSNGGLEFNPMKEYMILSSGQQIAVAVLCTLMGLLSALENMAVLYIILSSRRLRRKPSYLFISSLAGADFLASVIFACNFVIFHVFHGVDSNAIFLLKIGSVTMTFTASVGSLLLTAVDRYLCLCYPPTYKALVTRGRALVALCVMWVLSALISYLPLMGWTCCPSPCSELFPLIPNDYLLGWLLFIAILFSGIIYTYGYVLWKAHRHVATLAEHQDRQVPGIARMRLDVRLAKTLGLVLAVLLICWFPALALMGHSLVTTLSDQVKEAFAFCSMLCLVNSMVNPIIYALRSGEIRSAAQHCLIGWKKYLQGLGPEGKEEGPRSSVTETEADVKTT
T1 sequence (P20272 whole entry): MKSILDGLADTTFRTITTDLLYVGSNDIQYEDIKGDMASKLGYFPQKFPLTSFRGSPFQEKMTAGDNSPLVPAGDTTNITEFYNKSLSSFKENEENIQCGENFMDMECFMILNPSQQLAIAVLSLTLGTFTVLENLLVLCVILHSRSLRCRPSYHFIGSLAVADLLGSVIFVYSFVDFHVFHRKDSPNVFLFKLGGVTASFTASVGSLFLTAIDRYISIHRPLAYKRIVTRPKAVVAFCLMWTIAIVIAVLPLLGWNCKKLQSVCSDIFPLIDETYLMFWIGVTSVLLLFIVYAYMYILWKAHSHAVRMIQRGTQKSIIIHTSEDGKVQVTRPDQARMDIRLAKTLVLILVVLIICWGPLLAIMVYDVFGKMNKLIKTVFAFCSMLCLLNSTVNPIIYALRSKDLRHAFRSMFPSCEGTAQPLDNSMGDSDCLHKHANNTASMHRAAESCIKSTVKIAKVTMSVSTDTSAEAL

Structure (SMILES): CN(C(=O)c1nc(-c2ccc(Cl)cc2Cl)n(-c2ccc(Br)cc2)c1CO)C1CCCCC1 [Compound 1-5]
- Ki [1, 3]: 28.8 nM
- Ki [2, 4]: 3780 nM

Structure (SMILES): O=C(Nc1nc(-c2ccc(Cl)cc2Cl)n(-c2ccc(I)cc2)c1CO)NC1CCCCC1 [Compound 1-39]
- Ki [1, 3]: 6.8 nM
- Ki [2, 4]: 1340 nM

Structure (SMILES): Cc1c(C(=O)NN2CCCCC2)nn(-c2ccc(Cl)cc2Cl)c1-c1ccc(C#Cc2ccccn2)cc1 [Compound 5-9]
- Ki [1, 5]: 50 nM
- Selectivity CB1 ([1]; Table 10): 1
- Ki [2, 6]: 59 nM

Structure (SMILES): Cc1c(C(=O)NN2CCCCC2)nn(-c2ccc(Cl)cc2Cl)c1-c1ccc(C#CC2CC2)cc1 [Compound 5-6]
- Ki [1, 5]: 12 nM
- Selectivity CB1 ([1]; Table 10): 1.5
- Ki [2, 6]: 20 nM

Structure (SMILES): Cc1c(C(=O)NN2CCCCC2)nc(-c2ccc(Cl)cc2Cl)n1-c1ccc(C#CCCO)cc1 [Compound 1-32]
- Ki [1, 3]: 6.2 nM
- Ki [2, 4]: 5090 nM

Structure (SMILES): Cc1c(C(=O)NN2CCCCC2)nc(-c2ccc(Cl)cc2Cl)n1-c1ccc(I)cc1 [Compound 1-6]
- Ki [1, 3]: 2.7 nM
- Ki [2, 4]: 4310 nM

Structure (SMILES): Cc1c(C(=O)N(C)C2CCCCC2)nc(-c2ccc(Cl)cc2Cl)n1-c1ccc(C#CCN=[N+]=[N-])cc1 [Compound 3-11]
- Ki [1, 7]: 1 nM
- Selectivity CB1 ([1]; Table 8): 82
- Ki [2, 8]: 82 nM

Structure (SMILES): O=C(NN1CCCCC1)c1nn(-c2ccc(Cl)cc2Cl)c(-c2ccc(C#CCO)cc2)c1CO [Compound 3-4]
- Ki [1, 7]: 21 nM
- Selectivity CB1 ([1]; Table 8): 15
- Ki [2, 8]: 313 nM

Structure (SMILES): N#CCCC#Cc1ccc(-c2c(CO)c(C(=O)NN3CCCCC3)nn2-c2ccc(Cl)cc2Cl)cc1 [Compound 3-1]
- Ki [1, 7]: 6 nM
- Selectivity CB1 ([1]; Table 8): 44
- Ki [2, 8]: 265 nM

Structure (SMILES): CN(C(=O)c1nc(-c2ccc(Cl)cc2Cl)n(-c2ccc(-c3nnn(C)n3)cc2)c1CO)C1CCCCC1 [Compound 1-27]
- Ki [1, 3]: 19 nM
- Ki [2, 4]: 620 nM

Structure (SMILES): Cc1cc(Br)ccc1-n1c(-c2ccc(Cl)cc2Cl)nc(C(=O)NN2CCCCC2)c1C [Compound 1-1]
- Ki [1, 3]: 29.8 nM
- Ki [2, 4]: 808 nM

Structure (SMILES): Cc1c(NC(=O)NC2CCCCC2)nc(-c2ccc(Cl)cc2Cl)n1-c1ccc(Br)cc1 [Compound 1-35]
- Ki [1, 3]: 6.9 nM
- Ki ([2]; CB2 Ki, Table 6, [3H] CP-55,940): 20500 nM

Structure (SMILES): Cc1c(C(=O)NN2CCCCC2)nn(-c2ccc(Cl)cc2Cl)c1-c1ccc(CCCCN=[N+]=[N-])cc1 [Compound 4-5]
- Ki [1, 9]: 3 nM
- Selectivity CB1 ([1]; Table 9): 59
- Ki [2, 10]: 177 nM

Structure (SMILES): O=C(NN1CCCCC1)c1nn(-c2ccc(Cl)cc2Cl)c(-c2ccc(CCCCO)cc2)c1CO [Compound 4-3]
- Ki [1, 9]: 31 nM
- Selectivity CB1 ([1]; Table 9): 243
- Ki [2, 10]: 7540 nM

Structure (SMILES): Cc1c(C(=O)NN2CCCCC2)nn(-c2ccc(Cl)cc2Cl)c1-c1ccc(CCCO)cc1 [Compound 4-1, 1-(2,4-Dichloro-phenyl)-5-[4-(3-hydroxy-propyl)-phenyl]-4-methyl-1H-pyrazole-3-carboxylic acid piperidin-1-ylamide]
- Ki [1, 9]: 26 nM
- Selectivity CB1 ([1]; Table 9): 8
- Ki [2, 10]: 230 nM

Structure (SMILES): O=C(Nc1nc(-c2ccc(Cl)cc2Cl)n(-c2ccc(I)cc2)c1CBr)NC1CCCCC1 [Compound 1-38]
- Ki [1, 3]: 5 nM
- Ki [2, 4]: 75.3 nM

Structure (SMILES): Cc1c(C(=O)NN2CCCCC2)nn(-c2ccc(Cl)cc2Cl)c1-c1ccc(C#CC2(O)CCCCC2)cc1 [Compound 5-7]
- Ki [1, 5]: 20 nM
- Selectivity CB1 ([1]; Table 10): 3.5
- Ki [2, 6]: 68 nM

Structure (SMILES): CN(C(=O)c1nc(-c2ccc(Cl)cc2Cl)n(-c2ccc(-c3nnnn3C)cc2)c1CO)C1CCCCC1 [Compound 1-26]
- Ki [1, 11]: 101 nM
- Ki [2, 4]: 1320 nM

Structure (SMILES): Cc1c(C(=O)NN2CCCCC2)nn(-c2ccc(Cl)cc2Cl)c1-c1ccc(C#CCN(C)C)cc1.Cl [Compound 5-3]
- Ki [1, 5]: 30 nM
- Selectivity CB1 ([1]; Table 10): 2.2
- Ki [2, 6]: 66 nM

Structure (SMILES): O=C(NN1CCCCC1)c1nc(-c2ccc(Cl)cc2Cl)n(-c2ccc(-c3nnn[nH]3)cc2)c1CO [Compound 1-19]
- Ki [1, 11]: 5760 nM
- Ki [2, 4]: 22300 nM

Structure (SMILES): Cc1c(C(=O)NN2CCCCC2)nc(-c2ccc(Cl)cc2Cl)n1-c1ccc(C#N)cc1 [Compound 1-8]
- Ki [1, 3]: 57 nM
- Ki [2, 4]: 7220 nM

Structure (SMILES): Cc1c(C(=O)N(C)C2CCCCC2)nc(-c2ccc(Cl)cc2Cl)n1-c1ccc(-c2nnn[nH]2)cc1 [Compound 1-22]
- Ki [1, 11]: 359 nM
- Ki [2, 4]: 26300 nM
